Test system: hematopoietic progenitors (MPP^FL+, CLP, DN1, DN2, DN3)
Test: OP9:OP9DL1 stromal co-cultures, myeloid versus lymphoid progeny by flow cytometry
Format: cell-based, mouse
Settings: 50 nM; for myeloid versus lymphoid progeny: DN3 progenitors; for myeloid versus lymphoid progeny / percentage of myeloid progeny versus lymphoid progeny: 6 days after plating on OP9:OP9DL1 stroma; for percentage of myeloid progeny versus lymphoid progeny: MPP^FL+, CLP, DN1 and DN2 progenitors
Source text: FIG. 6 is a series of graphical representations of FACS plots and quantitation of myeloid versus lymphoid progeny. FIG. 6a are representative FACS plots of progeny from hematopoietic progenitors 6 days after plating on OP9:OP9DL1 stroma in the presence or absence of 5-aza-2′deoxycytidine. […] FIG. 6b is a histogram depicting quantitation of myeloid versus lymphoid progeny. The percentage of myeloid versus lymphoid progeny, as defined above, were quantified for each well from the experiment in a. Each bar represents the average of triplicate wells, and the error bars are the standard deviations between wells.
OP9:OP9DL1 stromal co-cultures. 3000 OP9 and 3000 OP9DL1 cells were plated in each well of 96 well plates in MEMa+10% FBS. The next day, 50 double-sorted progenitors were plated per well in the presence of 5 ng/ml IL-7 and F1t3L, and 10 ng/ml IL-3, IL-6, M-CSF, GM-CSF, and G-CSF (PeproTech). 50 nM 5-aza-2′-deoxycytide (Sigma) or vehicle (50% acetic acid) was added to the wells as indicated. At day 3, half of the media plus cytokines and drugs was replaced. At day 6, progeny from each well were stained and analyzed by flow cytometry to identify lymphoid versus myeloid progeny.
To test the hypothesis that reduced methylation preferentially promotes myeloid as opposed to lymphoid differentiation, an in vitro assay system that promotes both myeloid and lymphoid development was used (as in Engel et al., Epigenetics. 2009;4:98-99 and Bell et al., Nature. 2008;452:764-767). […] It evident that inhibiting DNA methylation promotes myeloid versus lymphoid specification, providing a mechanism for the myeloid skewing observed in Dnmt1 hypomorphs.

[1] = listed as 5-aza-2′deoxycytidine

Structure (SMILES): Nc1ncn([C@H]2C[C@H](O)[C@@H](CO)O2)c(=O)n1 [5-aza-2′-deoxycytidine]
- myeloid skewing, compared between progenitor populations (DN1 cells, 6 days): most pronounced in DN1 cells
- myeloid versus lymphoid progeny: remained lymphoid committed
- myeloid versus lymphoid progeny [1]: continued to generate an exclusively lymphoid readout
- cell expansion (DN3 wells, 6 days): inhibited cell expansion
- percentage of myeloid progeny versus lymphoid progeny: increased at the expense of lymphoid progeny
- percentage of myeloid progeny versus lymphoid progeny [1]: trended towards generating more myeloid progeny

Source: patent publication US20130281304A1, “Comprehensive Methylome Map of Myeloid and Lymphoid Commitment from Hematopoietic Proenitors” (priority 2010, published 2013)
